In patent US10766869B2, “Triazoles for the treatment of demyelinating dieases” (Vertex Pharmaceuticals Incorporated, priority 2015, dated 2020):
Like-named read-outs stand apart in the source and are kept apart here.

Tested on: primary rat mixed cortical cells
Test: In vitro myelination assay (MBP positive myelin strands, fold myelin pixels above background)
Assay type: cell-based
Conditions: Rattus norvegicus; for fold induction at 1 µM: 1.0 μM compound; for fold induction at 10 µM: 10.0 μM compound
Procedure, shortened: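 Fourteen-day treatment of primary P1 rat mixed cortical cultures, re-dosed at days 6 and 10, at 1.0 μM and 10.0 μM. MBP immunofluorescence was imaged at 10× and myelin strands quantified by software, normalised to untreated wells as fold above background.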

[1] = read-out: Fold myelin pixels above background relative to baseline of no added compound
[2] = relative to baseline of no added compound, read-out: Fold myelin pixels above background
[3] = relative to baseline of no added compound, read-out: Fold myelin pixels above background, 1.0 μM
[4] = relative to baseline of no added compound, read-out: Fold myelin pixels above background, 10.0 μM

Structure (SMILES)	fold induction at 1 µM [1]	fold induction at 10 µM [1]	fold induction at 1 µM [3]	fold induction at 10 µM [4]	further results
Cc1cc(Nc2ncn(-c3cc(F)cc(F)c3)n2)cc(N2CCCC2CN2CCCC2CO)c1 (stereo not drawn) [Compound 1077, [1-[[1-[3-[[1-(3,5-difluorophenyl)-1,2,4-triazol-3-yl]amino]-5-methyl-phenyl]pyrrolidin-2-yl]methyl]pyrrolidin-2-yl]methanol]	1 to 10	≤ 1			
Cc1cc(Nc2ncn(-c3cnccn3)n2)cc(N2CCC(C3COC3)CC2)c1 [Compound 521, N-[3-methyl-5-[4-(oxetan-3-yl)-1-piperidyl]phenyl]-1-pyrazin-2-yl-1,2,4-triazol-3-amine]					fold induction at 1 µM [2]: 100 to 1000; fold induction at 10 µM [2]: 100 to 1000
Cc1cc(Nc2ncn(-c3cc(F)ccc3F)n2)cc(N2CCC(C3COC3)CC2)c1 [Compound 383, 1-(2,5-difluorophenyl)-N-[3-methyl-5-[4-(oxetan-3-yl)-1-piperidyl]phenyl]-1,2,4-triazol-3-amine]			10 to 100	1 to 10	
COC(=O)c1cc(Nc2ncn(-c3cc(F)cc(F)c3)n2)nc(N2CCOCC2)c1 [Compound 675, methyl 2-[[1-(3,5-difluorophenyl)-1,2,4-triazol-3-yl]amino]-6-morpholino-pyridine-4-carboxylate]					fold induction at 1 µM [2]: 1 to 10; fold induction at 10 µM [2]: 1 to 10
Cc1cc(Nc2ncn(-c3cc(F)cc(F)c3)n2)cc(N2CCNC(C)C2)c1 (stereo not drawn) [Compound 362, 1-(3,5-difluorophenyl)-N-[3-methyl-5-(3-methylpiperazin-1-yl)phenyl]-1,2,4-triazol-3-amine]			100 to 1000	≤ 1	
Cc1cc(Nc2ncn(-c3cc(F)cc(F)c3)n2)cc(N2CCC3(CCOC3)CC2)c1 [Compound 814, 1-(3,5-difluorophenyl)-N-[3-methyl-5-(2-oxa-8-azaspiro[4.5]decan-8-yl)phenyl]-1,2,4-triazol-3-amine]	10 to 100	1 to 10			
COc1cccc(-n2cnc(Nc3cc(C)cc(N4CCN(C)CC4)c3)n2)c1 [Compound 94, 1-(3-methoxyphenyl)-N-[3-methyl-5-(4-methylpiperazin-1-yl)phenyl]-1,2,4-triazol-3-amine]			100 to 1000	1 to 10	
COC1CC(Nc2cc(C)cc(Nc3ncn(-c4cc(F)cc(F)c4)n3)c2)C1 (stereo not drawn) [Compound 520, N3-[1-(3,5-difluorophenyl)-1,2,4-triazol-3-yl]-N1-(3-methoxycyclobutyl)-5-methyl-benzene-1,3-diamine]					fold induction at 1 µM [2]: 100 to 1000; fold induction at 10 µM [2]: ≤ 1
CC(=O)N1CCCC(c2cc(C)cc(Nc3ncn(-c4cnccn4)n3)c2)C1 (stereo not drawn) [Compound 300, 1-[3-[3-methyl-5-[(1-pyrazin-2-yl-1,2,4-triazol-3-yl)amino]phenyl]-1-piperidyl]ethanone]			100 to 1000	≤ 1	
COCCCCN1CCN(c2cc(C)cc(Nc3ncn(-c4cc(F)cc(F)c4)n3)c2)CC1 [Compound 1001, 1-(3,5-difluorophenyl)-N-[3-[4-(4-methoxybutyl)piperazin-1-yl]-5-methyl-phenyl]-1,2,4-triazol-3-amine]	10 to 100	1 to 10			
Cc1cc(Nc2ncn(-c3cc(F)c(C#N)cc3F)n2)cc(N2CCN(C3COC3)CC2)c1 [Compound 66, 2,5-difluoro-4-[3-[3-methyl-5-[4-(oxetan-3-yl)piperazin-1-yl]anilino]-1,2,4-triazol-1-yl]benzonitrile]			10 to 100	10 to 100	
Cc1cc(Nc2ncn(-c3cc(F)cc(F)c3)n2)cc(NC2CCOC3(CCOC3)C2)c1 (stereo not drawn) [Compound 1048, N3-[1-(3,5-difluorophenyl)-1,2,4-triazol-3-yl]-N1-(2,6-dioxaspiro[4.5]decan-9-yl)-5-methyl-benzene-1,3-diamine]	10 to 100	≤ 1			
